Entries after “also recorded” stand apart in the source; their conditions may differ.

Here are results for 2 compounds from patent US11154551B2, “HDAC1,2 inhibitors and methods of using the same” (UNIVERSITY OF UTAH RESEARCH FOUNDATION, priority 2014, dated 2021).

In data set [1] the test system is non-transformed, mouse bone marrow Pro-B derived Baf3 cells or cord blood stem cells. In words: cell death in non-transformed cells. The class given is cell-based. As to conditions: 2 μM, within 72 hr. An excerpt: Therefore, transformed lymphoma cells are more sensitive to HDAC1,2 inhibition when compared to the untransformed normal B-cells. HDAC1,2 inhibitor causes replication fork collapse in S-phase to trigger DNA damage response, and transformed cancer cells have increased DNA replication when compared to normal B cells. […] In addition to this property, EZH2^GOF DLBCL cells also have increased DNA repair compared to EZH2^WT DLBCL cells (FIG. 34A), which can also be targeted by HDAC1,2 inhibitor as it impairs the HDAC1,2 regulated DNA repair processes used by EZH2^GOF DLBCL cells for their survival.

Data set [2] relates to SupB15 (Ph+PreB-ALL) cells. Kind of data set: γH2AX immunofluorescence. The class given is cell-based, human. The following applies: 2 μM, 48 hours. How it is done: (§1) SupB15 cells were treated with 2 μM ACY1035, ACY1071, ACY957, or solvent (DMSO) for 48 hours. (A) Immunofluorescence with γH2AX was performed on treated SupB15 cells. The number of γH2AX foci was counted in around 100 cells for each treatment and classified into cells with no foci, 1-5, 6-10, and greater than 10 foci. (B) SupB15 cells treated with DMSO or ACY1035 for 48 hours were tested via neutral comet assay to measure the amount of double-strand breaks (DSBs), indicated by the tail.
BCR-ABL promotes DNA repair to prevent DNA damage accumulation in Philadelphia chromosome-positive (Ph+) leukemia cells. To examine the effect of various HDAC1,2-selective inhibitors on DNA repair and DNA damage response in Pre-B-ALL cells that express BCR-ABL, SupB15 (Ph+PreB-ALL) cells were treated with 2 μM ACY1035 or 2 μM ACY1071 or 2 μM ACY957 for 48 hours.

Data set [3] relates to doxorubicin-resistant EZH2GOF DLBCL (Karpas-422/NSG). In words: Karpas-422/NSG xenograft mouse model. The class given is in vivo. The following applies: seventeen doses of ACY1035, five doses of doxorubicin. As to the method: (C) FACS analyses of human CD19 and IgM markers in peripheral blood of Karpas-422/NSG xenograft mice treated with solvent or doxorubicin (Doxo) or the HDAC1,2 inhibitor ACY1035 (H12IN). Seventeen doses of HDAC1,2 inhibitor and five doses of doxorubicin were administered.
The in vivo testing used a doxorubicin-resistant EZH2^GOF DLBCL (Karpas-422/NSG) mouse model and a doxorubicin-sensitive EZH2^WT DLBCL (SUDHL8/NSG) mouse model (FIG. 36). To create these models, NOD-SCID-Gamma (NSG) mice were injected intravenously (i.v.) with 1×10^6 Karpas-422 cells (chemoresistant and expressing the EZH2 gain-of-function mutant) or SUDHL8 cells (chemosensitive and expressing wild-type EZH2).

For data set [4], the system named is SupB15 cells. Kind of data set: BrdU ChIP assay, γH2AX on nascent chromatin. The class given is cell-based, human. The text has this: The majority of chromatin-bound proteins that decreased following ACY1035 plus doxorubicin treatment compared to ACY1035 treatment alone belong to DNA replication and DNA replication-associated repair processes (FIGS. 29A and 29B).

The next data set relates to Hdac1,2. In words: in vitro enzyme assays, IC50 determination (FIG. 17A). The class given is biochemical. How it is done:
(A). For IC50 determination, recombinant HDAC enzymes were treated with HDAC1,2 or HDAC3 inhibitors in in vitro HDAC assays. (B). Western blots for H3K23ac using extracts from Pre-B-ALL SupB15 cells treated with increasing dose of HDAC1,2 inhibitor (ACY1035). (C). Hdac1^FI/FI, 2^FI/FI cells were infected with Ad-Cre virus to delete HDAC1 and HDAC2 (HDAC1,2 null) or uninfected (WT). (D). Hdac3^FI/FI cells were either uninfected (WT) or infected with Ad-Cre virus to delete Hdac3. HDAC3-null cells were treated with DMSO or the HDAC1,2 selective inhibitor.
We have determined 2 μM (FIG. 17B) as the minimum dose for the ACY compounds, respectively, that when added to cells increased H3K23ac (a mark targeted by Hdac1,2 but not Hdac3).

Data set [5] relates to normal NOD-SCID-Gamma mice. As to conditions: mouse.
For data set [6], the system named is SupB15 cells. In words: neutral comet assay. The class given is cell-based, human. As to conditions: 48 hours. As to the method:
as §1
We next asked whether double-strand break repair is impaired in SupB15 cells. We used neutral comet assays to measure the efficiency of double-strand break repair following treatment with ACY1035 for 48 hours. The neutral comet assay specifically measures double-strand breaks and not single-strand breaks. In this assay, control and HDAC1,2 inhibitor treated SupB15 cells were embedded in low melting agarose and subjected to electrophoresis to separate damaged DNA from intact DNA. Damaged DNA runs faster and therefore forms a tail, and the intact DNA is present in the head (FIG. 24B). DNA was visualized with sybrgreen staining.

Data set [7] has as its system Ph+ALL patient derived xenograft. In words: Ph+ALL patient-derived xenograft mouse model. As to conditions: for human CD45 and CD19 markers in bone marrow: 25 mg/kg ACY1035 every other day i.p., 0.25 mg/kg doxorubicin once a week i.v., vs solvent; for white cell burden: vs solvent-treated mice. The class given is in vivo. How it is done:
Patient-derived xenograft mice were treated with either cyclodextrin (solvent) or 25 mg/kg ACY1035 every other day for a total of 21 doses. (A) The level of human CD19, CD45, and CD34 markers were assessed in the bone marrow of these mice by FACS analysis. For each FACS marker, the bars represent (from left to right): solvent, ACY1035, doxorubicin, ACY1035+doxorubicin. (B) Solvent-treated mice have bones infiltrated with white blood cells.
Additional experiments were performed to assess the therapeutic benefits of HDAC1,2 inhibition in vivo using primary Ph+ALL patient derived xenograft mouse models. NOD/SCID mice were irradiated with a sub lethal dose of irradiation to ablate the immune system in these mice. Immune-compromised NSG mice were then injected with 2×10^6 CD34+ cells isolated from a Ph+ ALL patient. Bone and spleens were harvested from these primary xenograft mice when the leukemia burden reached the maximum 90-95% level as determined by FACS analysis for human CD19 and CD45 markers. Cells isolated from bone marrow and spleen of these primary xenograft mice were frozen in liquid nitrogen until use. A mixture of bone marrow and spleen cells from the primary xenograft mice was then injected into a cohort of sub-lethally irradiated NOD/SCID mice. Mice were divided into four treatment groups: solvent, ACY1035, doxorubicin, and ACY1035 plus doxorubicin. Xenograft mice were injected according to one of the four treatment groups after 5 days post-xenograft induction, when human CD45 marker reached around 5-10% in the peripheral blood. Mice were injected with 25 mg/kg ACY1035 every other day via i.p. and 0.25 mg/kg doxorubicin once a week via i.v., a dosing schedule that has minimal toxicity in immune compromised mice.
In this PDX model, the majority of leukemia cells homed in the bone marrow and not spleen. […] Furthermore, a decrease in human CD34+ stem/progenitor cells was observed similar to the results obtained from in vitro studies (FIG. 33A). […] The disclosed mechanistic and preclinical results provide strong evidence that HDAC1,2 inhibition or HDAC1,2 inhibition in combination with doxorubicin can provide a very potent therapeutic for Ph+PreB-ALL.
(Xenograft models place foreign cells or tissue in a host animal.)

For data set [8], the system named is normal NOD-SCID-Gamma mice. Kind of data set: hematoxylin and eosin staining of bone marrow and spleen, toxicity. The following applies: 25 mg/kg ACY1035 (fifteen doses) or 0.5 mg/kg doxorubicin (six doses).
Data set [9] has as its system SupB15 Pre-B-ALL leukemia xenograft. Kind of data set: SupB15 Pre-B-ALL leukemia xenograft mice. The class given is in vivo, mouse. As to conditions: same concentration of doxorubicin.
Text: Pre-B-ALL cell lines as well as Ph+ALL primary patient samples were engrafted in NOD scid gamma (NSG) mice to examine the efficacy of Hdac1,2 inhibitor in killing cells in vivo. We injected NSG mice with SupB15 cells (1×10^6) and Ph+Pre-B-ALL primary patient cells and monitored engraftment by flow cytometry using anti-human CD45/CD19 antibodies every week for 4-5 weeks. […] To examine the extent of leukemia infiltration in spleen and bone marrow, we performed IHC analysis.
The test system of data set [10] is Karpas-422 (EZH2GOF) cells. Kind of data set: neutral comet assay of DSB repair. The class given is cell-based, human. The text has this:
(A) Measurement of repair efficiency in SUDHL5 (EZH2^WT) and Karpas-422 (EZH2^GOF) cells using neutral comet assay that detects only double-strand breaks (DSBs). In the comet, the head (H) represents intact DNA and the tail (T) represents the number of DSBs in a single cell. Tail moment is a measure of length and intensity of DNA in the tail, and the average tail moments from 100 comets are indicated within the figure for each cell/treatment combination. Doxo indicates doxorubicin; H121N indicates HDAC1,2 inhibitor. (B) DNA damage in EZH2GOF cells following knockdown of HDAC1,2 using siRNA. NT indicates non-targeting control siRNA; HDAC1,2 siRNA indicates combined treatment with HDAC1 siRNA and HDAC2 siRNA. (C) Karpas-422 cells treated with DMSO solvent or HDAC1,2 inhibitor were subjected to microlaser irradiation. H3K27me3, γH2AX, Bmi-1, and serine2-phosphorylated RNA Polymerase II (engaged in transcriptional elongation) were monitored at laser break sites (arrows) after 15 minutes of recovery time. Numbers overlaying the images indicate percentages of cells with γH2AX lines that co-localized with H3K27me3, Bmi-1, or Pol2Ser2-P lines from at least four independent experiments (p value<0.01).
Indeed, EZH2, H3K27me3, and HDAC1,2 all localize to sites of DNA breaks, which links them to DNA repair. […]

Another data set relates to Karpas-422 cells. Kind of data set: propidium-iodide / BrdU-PI cell cycle analysis. The class given is cell-based, human. As to conditions: 48 h. As to the method:
(B): Quantitation of the cell cycle data in (A), compiled from three independent analyses. The graphs plotted the average percentage of cells in each phase of the cell cycle. […] (C): FACS analysis following BrdU-PI staining of Karpas-422 and SUDHL4 cells was performed following a 48 h or 72 h treatment with ACY-957.
Cell cycle analysis of propidium-iodide stained cells was performed with fixed cells. […] (C): FACS analysis following BrdU-PI staining of Karpas-422 and SUDHL4 cells was performed following a treatment with 2 μM ACY-957, 50 nM doxorubicin or both for 48 h.
(B): Quantitation of the cell cycle analysis performed in (A). Data from three independent cell cycle analyses were compiled and average percentage cells with standard errors were shown in this panel.
Propidium-iodide Cell Cycle Analysis.
Since these DLBCL cells expressed a hyperactive form of EZH2, pharmacological inhibition of EZH2 activity was considered a therapeutic strategy. […] GSK126 was a S-adenosyl-methionine-competitive inhibitor of EZH2 methyltransferase activity, and DZNep was a S-adenosylhomocysteine hydrolase inhibitor that disrupted the components of the PRC2 complex, thereby causing reduced chromatin-associated EZH2 levels.
To test this possibility, cell cycle analysis following treatment of Karpas-422 with ACY-957, doxorubicin, or ACY-957 in combination with doxorubicin was performed.

Take `Nc1ccc(-c2cccs2)cc1NC(=O)c1ccc2c(c1)cc(C1CC1)n2CCN1CCOCC1` [ACY-1035, N-(2-amino-5-(thiophen-2-yl)phenyl)-2-cyclopropyl-1-(2-morpholinoethyl)-1H-indole-5-carboxamide]: the cell death result in [1] is recorded as “did not cause any cell death”. The “DNA damage, quantitation of γH2AX foci” value in [2] is “statistically significant increase in DNA damage”. In data set [3], the “human CD19 and IgM population in peripheral blood” value was “significant decrease in human CD19 and IgM population in peripheral blood”. Also, the “γH2AX on the nascent chromatin” value with SupB15 cells [4] was “increase in γH2AX on the nascent chromatin”. In addition, the “inhibition of Hdac1,2 activities compared to Hdac3 (IC50 values)” value in the data set with Hdac1,2 is “very selectively”. The “toxic effects in vivo” value in data set [5] is “does not have toxic effects in vivo”. Besides, in the data set on SupB15 cells [6], the “damaged DNA (comet tail)” value is recorded as “increase in damaged DNA”. In data set [7], the “human CD45 and CD19 markers in bone marrow” value is “significant reduction in the human CD45 and CD19 markers; also recorded: greater decrease in the human leukemia markers when compared to doxorubicin-treated mice”; the white cell burden entry is reported as “decrease in the white cell burden”. Further, the “morphology of bone marrow and spleen cells” value in data set [8] is “No changes in the morphology of spleen or bone marrow cells; also recorded: no abnormalities or changes in the cell morphology in bone marrow or spleens”.
In the case of `COc1cccc2c1C(=O)c1c(O)c3c(c(O)c1C2=O)C[C@@](O)(C(=O)CO)C[C@@H]3O[C@H]1C[C@H](N)[C@H](O)[C@H](C)O1` [doxorubicin, reference compound], in data set [3], the “human CD19 and IgM population in peripheral blood” value was “no significant change in these markers”. The leukemia burden entry in [9] is “significantly decreased leukemia burden”. Besides, the “DSBs, comet tail moment” value in [10] is “far less sensitive to doxorubicin”. In addition, in data set [7], the “human CD45 and CD19 markers in bone marrow” value was “significant reduction in the human CD45 and CD19 markers”; the white cell burden result is reported as “decrease in the white cell burden”. For the same compound, in the data set with Karpas-422 cells (50 nM doxorubicin), the “increase in the percentage of cells in G2/M phase” value is on record as 1.5 to 2 fold. Further, the “cell death / sub-G1 population” value in the data set on Karpas-422 cells (2 μM ACY-957, 50 nM doxorubicin or both) was “modest increase in cell death”. Further, in [8], the “morphology of bone marrow and spleen cells” value was “No changes in the morphology of spleen or bone marrow cells; also recorded: no abnormalities or changes in the cell morphology in bone marrow or spleens”.
